The source of these data is patent US20250228832A1, “METHODS FOR TREATING DISORDERS AMELIORATED BY MUSCARINIC RECEPTOR ACTIVATION” (KARUNA THERAPEUTICS, INC., priority 2022, published 2025).

In one experiment the target is T1, human M4 receptor (Homo sapiens, UniProt P08173).
T1 construct: expressed in transfected cells
T1 sequence (P08173 1-479): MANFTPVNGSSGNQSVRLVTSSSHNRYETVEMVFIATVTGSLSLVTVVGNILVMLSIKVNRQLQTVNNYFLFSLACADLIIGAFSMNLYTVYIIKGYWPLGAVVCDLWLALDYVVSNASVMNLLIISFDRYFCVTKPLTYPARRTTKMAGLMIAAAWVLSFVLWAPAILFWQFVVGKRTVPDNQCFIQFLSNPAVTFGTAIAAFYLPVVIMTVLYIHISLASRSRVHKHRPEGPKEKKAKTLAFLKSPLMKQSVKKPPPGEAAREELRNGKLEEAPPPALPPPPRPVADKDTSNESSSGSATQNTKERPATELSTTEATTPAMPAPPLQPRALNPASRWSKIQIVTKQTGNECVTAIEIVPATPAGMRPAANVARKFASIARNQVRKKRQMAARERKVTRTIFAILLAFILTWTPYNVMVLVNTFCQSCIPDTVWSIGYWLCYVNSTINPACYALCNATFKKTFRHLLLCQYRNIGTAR
The experiment can be described thus: SPA GTP (GTPgS) binding curve shift assay, M4. In kind it is biochemical. As to the method: Membranes were prepared for GTPgS binding assays from CHO-K1 cells stably expressing human M2 or human M4 receptors. Cells were grown in 5-layer cell culture flasks. Cells were washed with 50 mL of PBS and then dissociated with 0.05% trypsin. Dissociated cells were then collected by centrifugation at 650×g for 8 min at 4° C. Pellets were rewashed in PBS by centrifugation and resuspended in 30 mL of 20 mM HEPES, 10 mM EDTA, pH 7.4. After sitting on ice for 30 min, membranes were collected by centrifugation at 50000×g for 15 min at 4° C., resuspended in 30 mL of 20 mM HEPES, 0.1 mM EDTA, pH 7.4, and collected again by centrifugation. Pellets were then washed twice by centrifugation in 30 mL of 20 mM HEPES, pH 7.4, and stored at −80° C. until the day of the assay. On the day of the assay, pellets were thawed on ice and resuspended in 1 mL of 20 mM HEPES, pH 7.4, 10 mM MgCl2, and 100 mM NaCl using Dounce homogenization.
According to Promega guidelines, membrane protein concentration was determined by BCA protein assay (Promega, Madison, WI).
On the day of the assay, serial dilutions of test PAM compounds were brought up in assay buffer (20 mM HEPES, 10 mM MgCl2; see Table 4 for NaCl concentrations) at four times the final assay concentration. […] of membrane homogenates (containing […] of membrane protein) were prepared in assay buffer supplemented with GDP at 4× final assay concentration (see Table 4 for GDP concentrations) and dispensed into 96 well polypropylene, U-bottom Greiner plates. Membrane plates were incubated for 10 min at room temperature with gentle shaking. Then, 25 μL of test compounds were added to assay plates. Plates were then incubated, with shaking, for an additional 10-15 min. Then, 25 μL of diluted agonists serially diluted in assay buffer at 4× final assay concentration was added to assay plates. Plates were then incubated, with shaking, for an additional 10-15 min. Next, […] of 0.4 nM ^35S-GTP (Perkin Elmer, Waltham, MA) in assay buffer was added to assay mixtures. The binding reaction was left on the shaker for 1 h at room temperature. Membranes in assay reactions were then transferred to GF/C filter plates (UniFilter, Perkin Elmer) and washed three times using FilterMate Harvester (Perkin Elmer) with cold assay buffer containing no GDP. Filter plates were then dried at 40° C. overnight, and […] of Beta Plate Scintillation liquid was added. Plates were top and bottom sealed before being read on the TopCount scintillation counter (Perkin Elmer, Waltham, MA).
(§1) Raw data for all assays was transmitted directly from plate readers into the Beacon database for processing. All assay plates contained positive and negative control wells for data normalization and scaling. […] All control wells contained DMSO at a final assay concentration that matched the test compound wells.
For GTPgS assays, the negative control wells were defined as 0% response. The highest response in a plate was scaled to 1, representing 100% response. Data from test compound wells was scaled to these controls and are reported as % control values. This was done to allow for subsequent GraphPad cooperativity analysis, setting the maximal response at no more than 1.

Another experiment has as its target T2, human M5 receptor (Homo sapiens, UniProt P08912).
T2 construct: expressed in transfected cells
T2 sequence (P08912 1-532): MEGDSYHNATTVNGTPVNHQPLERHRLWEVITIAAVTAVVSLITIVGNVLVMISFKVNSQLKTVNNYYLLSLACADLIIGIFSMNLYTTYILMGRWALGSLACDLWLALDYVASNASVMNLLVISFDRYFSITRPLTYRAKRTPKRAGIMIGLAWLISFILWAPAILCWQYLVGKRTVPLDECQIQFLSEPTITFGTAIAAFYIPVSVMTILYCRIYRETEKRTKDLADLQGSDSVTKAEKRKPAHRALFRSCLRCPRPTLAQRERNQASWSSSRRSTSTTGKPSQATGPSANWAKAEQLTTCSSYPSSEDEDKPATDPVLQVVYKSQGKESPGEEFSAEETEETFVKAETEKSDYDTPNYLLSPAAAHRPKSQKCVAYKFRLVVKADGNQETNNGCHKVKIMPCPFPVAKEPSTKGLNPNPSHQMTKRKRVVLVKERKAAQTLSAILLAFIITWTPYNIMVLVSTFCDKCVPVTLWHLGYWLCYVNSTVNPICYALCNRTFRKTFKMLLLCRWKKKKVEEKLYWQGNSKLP
The experiment can be described thus: HTRF IP-One curve shift assay, M5. It counts as cell-based. Particulars: M5. The protocol:
HTRF IP-One assays were performed using frozen cell aliquots prepared from CHO-K1 cell lines stably expressing human M1, M3, or M5 receptors. Cells were frozen following typical cell freezing protocols. […] Dissociated cells were quenched in full media and collected by centrifugation at 290×g for 5 min. […] 1 mL aliquots of cells were dispensed into cryovial tubes and frozen in a controlled rate cryo-freezer container at −80° C. Cells were stored at −80° C. (or in liquid nitrogen if stored for at least six months) until the day of the assay.
On the day before the assay, frozen cells were rapidly thawed in a 37° C. water bath, brought up in 20 mL of full media, and collected via centrifugation at 290×g for 5 min. […] Next, […] of cells (10,000 cells/well) were dispensed into 384-well coming plates in triplicate. Cells were incubated overnight in a 37° C., 5% CO2 cell incubator.
Then, 2 μL of test compounds were added to the cells and incubated for 10 min at 37° C. in a 5% CO2 cell incubator. Next, 2 μL of diluted agonists serially diluted in assay buffer at 7× final assay concentration was added to assay plates. Finally, assay plates were incubated for two hours at 37° C. in a 5% CO2 cell incubator.
Six μL of IP-1 detection reagents (IP-One Gq HTRF kit, Cisbio Cat #62IPAPEJ) were dispensed to the cells. First, the plates were incubated for two hours at room temperature (IP-One detection reagents were made according to Cisbio protocol). Then, plates were read on an Envision plate reader following the Cisbio guidelines.
as §1
Counts from the standard curve wells were used to generate a sigmoidal standard curve, which was used to transform the raw counts from each well on the plate (scaling control wells and compound wells) into a pmol/well IP1 value.
For orientation: In TR-FRET formats the signal depends on donor and acceptor labels being close together.

Each structure is given as a SMILES string. Like-named read-outs stand apart in the source and are kept apart here.

Usually Emax stands for the maximal effect, on the per cent scale that the assay sets. With `CC(=O)OCC[N+](C)(C)C` [acetylcholine, reference compound], the Emax on human M4 receptor (MK-4710 concentration 0 nM) stood at 67.6%; on human M5 receptor (Emraclidine concentration 41.2 nM, read-out: Emax), 77.7%; on human M5 receptor (MK-4710 concentration 0 nM), 71.2%; at human M5 receptor (MK-4710 concentration 1110 nM, read-out: Emax) it was 78.1%; on human M5 receptor (MK-4710 concentration 3330 nM, read-out: Emax) it was 78.8%. Besides, the maximal response (Emax) at […] at human M4 receptor (MK-4710 concentration […]) was 76.8%; on human M5 receptor (Emraclidine concentration […], read-out: Emax), 72.3%; at human M5 receptor (MK-4710 concentration […], read-out: Emax) it was 77.7%.
